Data reported in patent publication US5554359A, “Pigmentation enhancer and method” (priority 1994, dated 1996).

How the values were obtained:
[1] = system: tyrosinase activity in mouse melanoma cells; conditions: Cloudman S91; cited from earlier work
[2] = system: tyrosinase activity in human foreskin organ cultures; experiment: Tyrosinase activity in human foreskin organ cultures (tyrosine hydroxylase assay); type: cell-based
Protocol: At the time of surgical removal, human foreskins were placed on sterile gauze saturated with sterile IMDM medium (Iscove's modified Dulbecco's medium purchased from Irvine Scientific of Santa Ana, Calif.) for transportation from the Hospital nursery to the laboratory. The tissues were rinsed in sterile IMDM medium containing 500 U/ml penicillin and 500 μg/ml of streptomycin for 5 minutes. Under sterile conditions, an intradermal injection of medium was performed from the dermal side prior to dissection of the mucous membrane and lower dermis by scissors to make the thickness of skins equal. The foreskins were then cut into approximately 3 mm×3 mm squares and either frozen at -75° C. or placed in organ culture as described hereafter.
The organ culture medium was prepared from IMDM with glutamine supplemented with 20% horse serum, 5% fetal bovine serum, 100 U/ml penicillin, 100 μg/ml streptomycin and 3 mg/ml sodium bicarbonate. The serums were obtained from Hyclone Lab. Inc. of Logan Utah. Culture units were prepared by placing sterilized filters (AP20 025 00, Millipore) over sterilized support screens ([…] Swinnex filter support screens, Millipore) in the wells of 6-well tissue culture plates (Falcon 3046) with medium added to the wells such that the skin support screens floated and the filter absorbed the medium from beneath. The tissue samples were placed, epidermis up, on top of the saturated filters and incubated at 37° C. in a 5% CO2 humidified atmosphere. The medium was changed everyday. Harvested cultures were frozen at -75° C.
Tyrosinase activity in human skin organ cultures was determined by measuring the tyrosine hydroxylase activity of the enzyme. The assay measures the production of ^3 H2 O during the conversion of [^3 H]tyrosine to L-DOPA. Weighed skin preparations were incubated in 0.3 ml of a reaction mixture containing 0.01 mM of L-tyrosine, 5-6 uCi/ml of [^3 H]tyrosine and 0.1 mM L-DOPA in 0.1M of pH 6.8 phosphate buffer for 4 hours at 37° C. To terminate the reaction, 1 ml of phosphate buffer was added, the tubes vortexed, and 0.4 ml aliquots removed in triplicate and mixed with an equal volume of Norit SG activated charcoal (10% w/v, in 0.1N HCl). Following centrifugation at 2000×g for 10 min, the supernatants (0.5 ml) were placed in scintillation vials, scintillation fluid added, and vials counted in a TM Analytic 6895 scintillation counter equipped with a DPM processor.
Human foreskins were treated with the compounds shown in Table 1, placed in culture, and incubated for 72 hours. The skins were then assayed for tyrosinase activity with the tyrosine hydroxylase assay method as described herein.
The medium and compounds were changed daily. Tyrosinase activity was determined by measuring the tyrosine hydroxylase activity of the enzyme.
Human foreskin organ cultures were treated with the compounds listed in Table 3 for 3 days and tyrosinase activity determined as described herein. Theophylline was used at 1 mM.

[3] = system: tyrosinase activity in human melanocytes; experiment: Tyrosinase responses in human melanocytes (Table 6); type: cell-based; conditions: Table 6; 10^-7 M except IBMX 10^-4 M, theophylline 1 mM, ammonium chloride 10 mM, A23187 not given; melanocytes from skin type III
Protocol: (§1) The mouse melanoma cell lines used to study the effects of lysosomotropic agents herein were the Cloudman S91 cell line (ATCC no. CCL 53.1) and two subclones of this line developed in our laboratory, the amelanotic line, AM-7, and a melanotic line, MEL-11A. All melanoma cell lines were grown in Ham's F-10 nutrient medium supplemented with 10% horse serum, penicillin (100 units/ml), and streptomycin (100 μg/ml). The normal human melanocyte cell strains used in this study were derived from foreskins of either neonares or from boys 2-6 years old. Human melanocyte cultures were grown in Ham's F-10 nutrient medium supplemented with 10% horse serum, 5% fetal bovine serum (FBS), 32 nM TPA (12-O-tetradecanoylphorbol 13-acetate), 10^-4 M IBMX(3-isobutyl-1-methylxanthine), penicillin (100 units/ml), and streptomycin (100 μg/ml).
(§2) To determine tyrosinase activity in situ in either melanoma cells or in human melanocyte cultures, the tyrosine hydroxylase activity of the enzyme was determined. Cells were seeded into 60-mm culture dishes at 2×10^5 cells/dish and allowed to attach overnight. The medium was then exchanged for the appropriate growth medium supplemented with 1 μCi/ml of [^3 H]tyrosine (L-ring-3,5-^3 H]-tyrosine, DuPont New England Nuclear), and with hormones, where indicated. Cells were grown in labeled medium for 24 hours, and at this time, the medium was removed and assayed for the presence of ^3 H2 O using the charcoal absorption method of Pomerantz. Tyrosinase activity in cell homogenates was determined by sonicating cell pellets in 0.1-M sodium phosphate buffer (pH 6.8) and then incubating 50-μl aliquots in 0.5 ml of a reaction mixture containing 0.1-mM tyrosine, 2 μCi/ml of [^3 H]tyrosine, 0.1-mM L-DOPA (dihydroxyphenylalanine), and 0.1 mM PMSF (phenylmethylsulfonyl fluoride) at 37° C. for 2 hours. Reactions were terminated by the addition of 1 ml of charcoal (10% w/v in 0.1-N HCl). Samples were centrifuged, and the supernatants removed for determination of the amount of ^3 H2 O produced.
Hormone responsiveness in human melanocyte cell cultures were examined (for these studies, melanocytes derived from skin type III were used). […] Tyrosinase activity and melanin content typically double with a 48-hour exposure to IBMX. […] The steroid hormones, for the most part, caused little, if any, change in tyrosinase activity at the concentrations used.

[4] = system: tyrosinase activity in mouse melanoma cells; experiment: Tyrosinase responses in mouse melanoma cells (Table 6); type: cell-based; conditions: Table 6; 10^-7 M except IBMX 10^-4 M, theophylline 1 mM, ammonium chloride 10 mM, A23187 not given
Protocol: as §1
as §2, with “produced. […]” for “produced.”

[5] = system: tyrosinase activity in human melanocytes from white-skinned individuals; experiment: Tyrosinase activity in human melanocytes from white skin; type: cell-based; conditions: cell strain 69W; up to four hours; FIG. 8
Protocol: as §1, §2
Dose/response parameters for ammonium chloride action were determined. […] Since tyrosinase is the rate-limiting enzyme for melanin synthesis, the stimulation of this enzyme by ammonium chloride should lead to increased melanin content of stimulated cells. […] Ammonium chloride increased tyrosinase activity in melanocytes from white-skinned individuals twenty-fold within 24 hours and by this time melanin contents had increased two-fold. Two other lysosomotropic agents, monensin and nigericin, were tested for their effects on tyrosinase activity. […] Thus, lysosomotropic agents have the ability to stimulate tyrosinase activity and melanin production in human melanocytes derived from white-skinned individuals, and to reduce melanin production in melanocytes from black-skinned people.

[6] = Table 1, B = black, 72 h, Theophylline 1 mM, MSH 2 × 10^-7 M, dbcAMP 0.1 mM, D-phe-MSH 10^-8 M
[7] = Table 1, W = white, 72 h, Theophylline 1 mM, MSH 2 × 10^-7 M, dbcAMP 0.1 mM, D-phe-MSH 10^-8 M

Compound	Effect on Tyrosinase Activity, Human Melanocyte [3]	Effect on Tyrosinase Activity, Mouse Melanoma [4]	other results
Nc1ncnc2c1nc(Br)n2[C@@H]1O[C@@H]2COP(=O)(O)O[C@H]2[C@H]1O [8-bromo cAMP]			mimicking of the MSH response [1]: mimicked
CCCC(=O)Nc1ncnc2c1ncn2[C@@H]1O[C@@H]2COP(=O)(O)O[C@H]2[C@H]1OC(=O)CCC [dbcAMP, dibutyryl cyclic AMP]			Tyrosinase activity stimulated, percentage of black foreskins [2, 6]: 33%; Tyrosinase activity unaffected, percentage of black foreskins [2, 6]: 67%; Tyrosinase activity stimulated, percentage of white foreskins [2, 7]: 25%; Tyrosinase activity unaffected, percentage of white foreskins [2, 7]: 75%; stimulation of tyrosinase activity ([2]; human foreskins, 72 hours): less effective in stimulating tyrosinase activity; mimicking of the MSH response [1]: mimicked
C[C@]12CC[C@H]3[C@@H](CCC4=CC(=O)CC[C@@]43C)[C@@H]1CC[C@@H]2O [Testosterone]	No effect	No effect	
CCCCCCCCCCCCCC(=O)O[C@@H]1[C@@H](C)[C@@]2(O)[C@@H](C=C(CO)C[C@]3(O)C(=O)C(C)=C[C@@H]23)[C@@H]2C(C)(C)[C@]12OC(C)=O [TPA, 12-O-tetradecanoylphorbol 13-acetate]	No effect		
CC1(C)O[C@@H]2C[C@H]3[C@@H]4CCC5=CC(=O)C=C[C@]5(C)[C@@]4(F)[C@@H](O)C[C@]3(C)[C@]2(C(=O)CO)O1 [Triamcinolone acetonide]	± (100-150% of control)	± (100-150% of control)	
Insulin: Insulin	No effect		
CCCCC[C@H](O)/C=C/[C@H]1[C@H](O)CC(=O)[C@@H]1CCCCCCC(=O)O [Prostaglandin E1]	+ (150-200%)		
C=C1CC[C@H](O)C/C1=C/C=C1\CCC[C@]2(C)[C@@H]([C@H](C)CCCC(C)C)CC[C@@H]12 [Vitamin D3]	No effect	No effect	
CO[C@@H]1C[C@@H](C[C@H]2CC[C@H](C)[C@H]([C@@H](C)C(=O)O)O2)O[C@]2(O[C@](C)([C@H]3CC[C@@](C)([C@@H]4O[C@@H]([C@H]5O[C@@](O)(CO)[C@H](C)C[C@@H]5C)C[C@@H]4C)O3)C[C@H]2C)[C@@H]1C [nigericin]			stimulation of tyrosinase activity [5]: stimulated tyrosinase activity
CC[C@@]1([C@@H]2O[C@@H]([C@H]3O[C@@](O)(CO)[C@H](C)C[C@@H]3C)C[C@@H]2C)CC[C@H]([C@]2(C)CC[C@]3(C[C@H](O)[C@@H](C)[C@@H]([C@@H](C)[C@@H](OC)[C@H](C)C(=O)O)O3)O2)O1 [monensin]			stimulation of tyrosinase activity [5]: stimulated tyrosinase activity
CNc1ccc2oc(C[C@H]3O[C@@]4(CC[C@H]3C)O[C@H]([C@H](C)C(=O)c3ccc[nH]3)[C@H](C)C[C@H]4C)nc2c1C(=O)O [A23187]	No effect	Inhibited	
C[C@]12CC[C@@H]3c4ccc(O)cc4CC[C@H]3[C@@H]1CC[C@@H]2O [Estradiol]	Inhibited	No Effect	
CC(=O)[C@H]1CC[C@H]2[C@@H]3CCC4=CC(=O)CC[C@]4(C)[C@H]3CC[C@]12C [Progesterone]	± (100-150% of control)	± (100-150% of control)	
